According to patent US5387684A, “Isoindazole compound” (The Green Cross Corporation, priority 1992, dated 1995):
Counter-ions that a name gives are not always drawn.

Target: T1, angiotensin II receptor (Rattus norvegicus, UniProt P25095)
T1 sequence (P25095 1-359): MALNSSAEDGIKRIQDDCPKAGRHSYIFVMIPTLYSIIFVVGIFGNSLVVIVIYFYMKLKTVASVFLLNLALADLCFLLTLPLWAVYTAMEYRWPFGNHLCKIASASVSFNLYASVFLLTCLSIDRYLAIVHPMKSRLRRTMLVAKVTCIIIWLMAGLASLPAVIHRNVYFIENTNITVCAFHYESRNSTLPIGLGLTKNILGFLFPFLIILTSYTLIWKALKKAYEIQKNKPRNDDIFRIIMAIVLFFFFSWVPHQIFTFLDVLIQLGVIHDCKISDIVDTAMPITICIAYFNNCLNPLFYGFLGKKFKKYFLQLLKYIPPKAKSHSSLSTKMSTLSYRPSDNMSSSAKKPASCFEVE
Test: Inhibition of binding of angiotensin II to rat smooth muscle cells (125I-AII)
Details: ^125 I-Tyr^4-angiotensin II, smooth muscle cells from rat aorta, room temperature, 1 hour; read-out: inhibitory action (IC50) on the binding of angiotensin II to the receptor

SMILES | IC50 [nM]
CCCCc1nc(Cl)c(CO)n1Cc1ccc2nn(-c3ccccc3C(=O)O)cc2c1 [Example 5, 2-butyl-4-chloro-1-[2-(2-carboxyphenyl)-2H-indazol-5-yl]methyl-5-(hydroxymethyl)-1H-imidazole] | 40
CCCCc1nc(Cl)c(C=O)n1Cc1ccc2nn(-c3ccccc3C(=O)O)cc2c1 [Example 7, 2-butyl-4-chloro-1-[2-(2-carboxyphenyl)-2H-indazol-5-yl]methyl-1H-imidazole-5-carbaldehyde] | 130
CCCCc1nc2cccnc2n1Cc1ccc2nn(-c3ccccc3C(=O)O)c(Br)c2c1 [sodium salt] | 6.7
CCCCc1nc(C(=O)O)c(Cl)n1Cc1ccc2nn(-c3ccccc3C(=O)O)c(Br)c2c1 [Example 10, disodium 2-butyl-5-chloro-1-[3-bromo-2-(2-carboxyphenyl)-2H-indazol-5-yl]methyl-1H-imidazole-4-carboxylate] | 720
CCCCc1nc(Cl)c(C=O)n1Cc1ccc2nn(-c3ccccc3-c3nnn[nH]3)c(Br)c2c1 [Example 12, 1-{[3-bromo-2-[2-(1H-tetrazol-5-yl)phenyl]-2H-indazol-5-yl]methyl}-2-butyl-4-chloro-1H-imidazole-5-carbaldehyde] | 60
CCCCc1nc(Cl)c(C=O)n1Cc1ccc2nn(-c3ccccc3C(=O)O)c(Br)c2c1 [Example 6, 2-butyl-4-chloro-1-[3-bromo-2-(2-carboxyphenyl)-2H-indazol-5-yl]methyl-1H-imidazole-5-carbaldehyde] | 19
CCCCc1nc(Cl)c(CO)n1Cc1ccc2nn(-c3ccccc3-c3nnn[nH]3)c(Br)c2c1 [Example 14, 1-{[3-bromo-2-[2-(1H-tetrazol-5-yl)phenyl]-2H-indazol-5-yl]methyl}-2-butyl-4-chloro-5-(hydroxymethyl)-1H-imidazole] | 2.5
CCCCc1nc(Cl)c(C(=O)O)n1Cc1ccc2nn(-c3ccccc3C(=O)O)c(Br)c2c1 [Example 9, disodium 1-[3-bromo-2-(2-carboxyphenyl)-2H-indazol-5-yl]methyl-2-butyl-4-chloro-1H-imidazole-5-carboxylate] | 2.5
CCCCc1nc(Cl)c(CO)n1Cc1ccc2nn(-c3ccccc3C(=O)O)c(Br)c2c1 [Example 4, 1-[3-bromo-2-(2-carboxyphenyl)-2H-indazol-5-yl]methyl-2-butyl-4-chloro-5-(hydroxymethyl)-1H-imidazole] | 4.3
CCCc1nc2c(C)ccnc2n1Cc1ccc2nn(-c3ccccc3C(=O)O)c(Br)c2c1 [Example 20, 3-[3-bromo-2-(2-carboxyphenyl)-2H-indazol-5-yl]-methyl-7-methyl-2-propyl-3H-imidazo[4,5-b]pyridine] | 1.4
CCCCc1nc2cccnc2n1Cc1ccc2nn(-c3ccccc3-c3nnn[nH]3)c(Br)c2c1 [Example 23, 3-{[3-bromo-2-[2-(1H-tetrazol-5-yl)phenyl]-2H-indazol-5-yl]methyl}-2-butyl-3H-imidazo[4,5-b]pyridine] | 3.1

Further lines, results first:

IC50 [nM] | SMILES
0.72 | CCc1nc2c(C)cc(C)nc2n1Cc1ccc2nn(-c3cccc(Cl)c3-c3nnn[nH]3)c(Br)c2c1 [Example 25, 3-{[3-bromo-2-[3-chloro-2-(1H-tetrazol-5-yl)-phenyl]-2H-indazol-5-yl]methyl}-2-ethyl-5,7-dimethyl-3H-imidazo[4,5-b]pyridine]
0.8 | CCc1nc2c(C)cc(C)nc2n1Cc1ccc2nn(-c3ccccc3-c3nnn[nH]3)c(Cl)c2c1 [Example 24, 3-{[3-chloro-2-[2-(1H-tetrazol-5-yl)phenyl]-2H-indazol-5-yl]methyl}-2-ethyl-5,7-dimethyl-3H-imidazo[4,5-b]pyridine]
1.8 | CCCc1nc2c(C)ccnc2n1Cc1ccc2nn(-c3ccccc3-c3nnn[nH]3)c(Br)c2c1 [Example 22, 3-{[3-bromo-2-[2-(1H-tetrazol-5-yl)phenyl]-2H-indazol-5-yl]methyl}-7-methyl-2-propyl-3H-imidazo[4,5-b]pyridine]
2 | CCc1nc2c(C)cc(C)nc2n1Cc1ccc2nn(-c3ccccc3C(=O)O)c(Br)c2c1
1.1 | CCc1nc2c(C)cc(C)nc2n1Cc1ccc2nn(-c3ccccc3-c3nnn[nH]3)c(Br)c2c1 [Example 21, 3-{[3-bromo-2-[2-(1H-tetrazol-5-yl)phenyl]-2H-indazol-5-yl]methyl}-2-ethyl-5,7-dimethyl-3H-imidazo[4,5-b]pyridine]
